Consider nine molecules from patent US6384058B1, “2,4,6-trisubstituted pryridines with estrogenic activity and methods for the solid phase synthesis thereof” (American Home Products Corporation, priority 1997, dated 2002).

One series has as its target T1, human estrogen receptor (Homo sapiens, UniProt P03372).
T1 construct: expressed in transfected cells; host or cells: Chinese Hamster Ovary (CHO) cells, stably transfected
T1 sequence (P03372 1-595): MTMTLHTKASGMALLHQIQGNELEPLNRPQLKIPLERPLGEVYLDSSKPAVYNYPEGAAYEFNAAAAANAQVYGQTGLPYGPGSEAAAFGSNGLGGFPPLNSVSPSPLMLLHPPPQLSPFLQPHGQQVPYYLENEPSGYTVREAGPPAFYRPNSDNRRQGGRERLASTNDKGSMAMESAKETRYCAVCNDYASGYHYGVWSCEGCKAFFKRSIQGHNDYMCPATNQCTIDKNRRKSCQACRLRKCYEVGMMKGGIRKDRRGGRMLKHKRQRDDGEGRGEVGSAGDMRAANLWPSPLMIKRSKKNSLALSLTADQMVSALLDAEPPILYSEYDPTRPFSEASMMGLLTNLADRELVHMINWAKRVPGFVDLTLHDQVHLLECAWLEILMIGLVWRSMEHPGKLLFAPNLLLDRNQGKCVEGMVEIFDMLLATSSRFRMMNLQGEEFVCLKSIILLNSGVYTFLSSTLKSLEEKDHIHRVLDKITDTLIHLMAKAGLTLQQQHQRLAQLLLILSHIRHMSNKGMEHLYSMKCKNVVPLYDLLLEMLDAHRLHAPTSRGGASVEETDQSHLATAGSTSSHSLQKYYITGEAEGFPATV
In words: Estrogen Receptor Assay: 2×VIT ERE Transfection Assay (luciferase reporter in CHO cells). The format is cell-based. Particulars: 1 μM compound alone, 24 h, CHO cells stably transfected with human estrogen receptor, luciferase normalised to B-galactosidase, n=8. The procedure: Enhancement of luciferase gene expression in this model is dependent upon estrogen receptor (ER) interaction with a vitellogenin gene estrogen responsive element (ERE) capable of enhancing basal promoter activity. This is a sensitive and rapid methodology to assess estrogenic/antiestrogenic potency of compounds.
48 h prior to treatment the growth medium is replaced with DMEM lacking phenol red+10% dextran coated charcoal stripped FBS (treatment medium). Cells are plated at a density of 5000 cells/well in 96-well plates containing 200 μL of medium/well.
Calcium Phosphate Transfection: Reporter DNA (Promega plasmid pGL2 containing two tandem copies of the vitellogenin ERE in front of the minimal thymidine kinase promoter driving the luciferase gene) is combined with the B-galactosidase expression plasmid pCH110 (Pharmacia) and carrier DNA (pTZ18U) in the following ratio: 10 μg of reporter DNA, 5 μg of pCH110 DNA, 5 μg of pTZ18U, and 20 μg of DNA/1 mL of transfection solution. […] 20 μL of this mixture is added to each well of cells and remains on the cells for 16 h. […] Each treatment condition is performed on 8 wells (n=8) which are incubated for 24 h prior to luciferase assay.
Luciferase Assay: After 24 h exposure to compounds, the media is removed and each well is washed 2× with 125 μL of PBS lacking Mg++ and Ca++. After removing the PBS, 25 μL of Promega lysis buffer is added to each well and allowed to stand at room temperature for 15 min, followed by 15 min at −80 deg. C. and 15 min at 37 deg. C. 20 μL of lysate is tranferred to an opaque 96-well plate for luciferase activity evaluation and the remaining lysate (5 μL) is used for B-galactosidase activity evaluation (normalize transfection). The luciferan substrate (Promega) added is 100 μL aliquots to each well automatically by the luminometer and the light produced (relative light units) is read 10 seconds after addition. The data is logged and automatically sent to a JMP statistical program for analysis. A hard copy printout is also produced at the time of the assay.
B-galactosidase Assay: To the remaining 5 μL of lysate 45 μL of PBS is added. 50 μl of Promega B-galactosidase 2×assay buffer is added, mixed well and incubated at 37 deg. C. for 1 h. A plate containing a standard curve (0.1 to 1.5 milliunits in triplicate) is set up for each experimental run. The plates are analyzed on a Molecular Devices spectrophotometric plate reader at 410 nm. The optical densities for the unknowns are converted to milliunits of activity by mathematical extrapolation from the standard curve. Analysis of Results: The luciferase data is generated as relative light units (RLUs) accumulated during a 10 second measurement and is automatically transferred to a JMP (SAS Inc) file where background RLUs are subtracted. The B-galactosidase values are automatically imported into the file and these values are divided into the RLUs to normalize the data. The mean and standard deviation is determined from a n=8 for each treatment.

Take `Oc1cccc(-c2cc(-c3ccc(-c4ccccc4)cc3)cc(-c3ccc4ccccc4c3)n2)c1` [Example 9, 3-(4-Biphenyl-4-yl-6-naphthalen-2-yl-pyridin-2-yl)-phenol]: the melting point was 174 to 175 °C.

For the molecule `Oc1ccccc1-c1cc(-c2ccc3c(c2)OCO3)cc(-c2ccsc2)n1` [Example 5, 2-(4-Benzo[1,3]dioxol-5-yl-6-thiophen-3-yl-pyridin-2-yl)-phenol], the melting point was 120 to 121 °C.

`Oc1ccccc1-c1cc(-c2ccc(F)c(F)c2)cc(-c2ccco2)n1` [Example 3, 2-[4-(3,4-Difluoro-phenyl)-6-furan-2-yl-pyridin-2-yl]-phenol] registered a melting point of 147 to 148 °C. Moreover, on human estrogen receptor, the “Estrogenic activity at 1 μM (% of activity of 1 nM 17B-estradiol)” value worked out at 10%.

Turning to `Oc1ccccc1-c1cc(-c2ccc(F)c(F)c2)cc(-c2ccc3ccccc3c2)n1` [Example 2, 2-[4-(3,4-Difluoro-phenyl)-6-naphthalen-2-yl-pyridin-2-yl]-phenol], the melting point lay within 165 to 167 °C.

Molecule `Oc1ccc(F)cc1-c1cc(-c2ccc(-c3ccccc3)cc2)cc(-c2ccc3ccccc3c2)n1` [Example 6, 2-(4-Biphenyl-4-yl-6-naphthalen-2-yl-pyridin-2-yl)-4-fluoro-phenol] came in with a melting point of 187 to 188 °C.

Regarding `Oc1ccc(F)cc1-c1cc(-c2ccc(-c3ccccc3)cc2)cc(-c2ccncc2)n1` [Example 7, 2-(4-Biphenyl-4-yl-[2,4′]bipyridinyl-6-yl)-4-fluoro-phenol], on human estrogen receptor, the “Estrogenic activity at 1 μM (% of activity of 1 nM 17B-estradiol)” value came to 6%.

Take `Oc1cccc(-c2cc(C3CCCCC3)cc(-c3ccco3)n2)c1` [Example 10, 3-(4-Cyclohexyl-6-furan-2-yl-pyridin-2-yl)-phenol]: the “Estrogenic activity at 1 μM (% of activity of 1 nM 17B-estradiol)” value at human estrogen receptor was found to be 36%.

Molecule `Oc1ccccc1-c1cc(-c2ccc3c(c2)OCO3)cc(-c2ccc3ccccc3c2)n1` [Example 4, 2-(4-Benzo[1,3]dioxol-5-yl-6-naphthalen-2-yl-pyridin-2-yl)-phenol] gave a melting point of 195 to 196 °C. The “Estrogenic activity at 1 μM (% of activity of 1 nM 17B-estradiol)” value at human estrogen receptor came to 22%.

`Oc1ccccc1-c1cc(-c2ccc(F)c(F)c2)cc(-c2ccc(Cl)cc2)n1` [Example 1, 2-[6-(4-Chloro-phenyl)-4-(3,4-difluoro-phenyl)-pyridin-2-yl]-phenol] displayed a melting point of 146 to 148 °C. For the same molecule, on human estrogen receptor, the “Estrogenic activity at 1 μM (% of activity of 1 nM 17B-estradiol)” value is recorded as 14%.

The melting point is the temperature of the solid-liquid transition.
